Source: patent US4637997A, “Hexapeptide, process for obtaining II and the pharmaceutical compositions containing II” (Institut National de la Sante et de la Recherche Medicale, priority 1984, dated 1987)
Peptide text beside a SMILES is read from it.

Test system: Klebsiella pneumoniae
Assay: experimental infection with Klebsiella pneumoniae in the mouse
Assay type: in vivo
Settings: i.v.

CC[C@H](C)[C@H](NC(=O)[C@@H]1CCCN1C(=O)[C@H](CCC(=O)O)NC(=O)[C@@H](N)C(C)C)C(=O)N1CCC[C@H]1C(=O)N[C@@H](Cc1ccc(O)cc1)C(=O)O [hexapeptide of formula (I), Val-Glu-Pro-Ile-Pro-Tyr] (H-VEPIPY-OH)
dose from which remarkable activity against experimental infection is exhibited: ≥ 0.05 mg/kg
